From ChEMBL document CHEMBL1154433, “Synthesis of new substituted azetidinoyl and thiazolidinoyl-1,3,4-thiadiazino (6,5-b) indoles as promising anti-inflammatory agents” (Eur J Med Chem, 2008)

Experiments:
Rattus norvegicus [1] = assay: Antiinflammatory activity in albino Charles-Foster rat assessed as inhibition of carrageenan-induced paw oedema at 50 mg/kg, po measured before 1 hr and after 3 hrs of carrageenan challenge relative to control; assay type: functional
Rattus norvegicus [2] = assay: Antiinflammatory activity in albino Charles-Foster rat assessed as inhibition of carrageenan-induced paw oedema at 10 mg/kg, po measured before 1 hr and after 3 hrs of carrageenan challenge relative to control; assay type: functional
Mus musculus [3] = assay: Analgesic activity in mouse assessed as protection against phenylquinone-induced writhing at 5 mg/kg, po administered 1 hr before phenylquinone challenge measured for 5 mins relative to controll; assay type: functional
Mus musculus [4] = assay: Analgesic activity in mouse assessed as protection against phenylquinone-induced writhing at 10 mg/kg, po administered 1 hr before phenylquinone challenge measured for 5 mins relative to control; assay type: functional
Rattus norvegicus [5] = assay: Antiinflammatory activity in albino Charles-Foster rat assessed as inhibition of carrageenan-induced paw oedema at 7.5 mg/kg, po measured before 1 hr and after 3 hrs of carrageenan challenge relative to control; assay type: functional
Mus musculus [6] = assay: Analgesic activity in mouse assessed as protection against phenylquinone-induced writhing at 7.5 mg/kg, po administered 1 hr before phenylquinone challenge measured for 5 mins relative to controll; assay type: functional
Rattus norvegicus [7] = assay: Antiinflammatory activity in albino Charles-Foster rat assessed as inhibition of carrageenan-induced paw oedema at 5 mg/kg, po measured before 1 hr and after 3 hrs of carrageenan challenge relative to control; assay type: functional
Rattus norvegicus [8] = assay: Antiinflammatory activity in albino Charles-Foster rat assessed as inhibition of carrageenan-induced paw oedema at 25 mg/kg, po measured before 1 hr and after 3 hrs of carrageenan challenge relative to control; assay type: functional
Mus musculus [9] = assay: Analgesic activity in mouse assessed as protection against phenylquinone-induced writhing at 50 mg/kg, po administered 1 hr before phenylquinone challenge measured for 5 mins relative to control; assay type: functional
[10] = Acute toxicity in orally dosed albino mouse after 24 hrs; assay type: organism-based, albino Charles-Foster; conditions: in vivo, po, read-out: ALD50
[11] = Toxicity in 24 hrs fasted Albino rat assessed as ulcerogenic activity after 8 hrs; assay type: organism-based; conditions: in vivo, read-out: UD50
Mus musculus [12] = assay: Analgesic activity in mouse assessed as protection against phenylquinone-induced writhing at 100 mg/kg, po administered 1 hr before phenylquinone challenge measured for 5 mins relative to control; assay type: functional
Rattus norvegicus [13] = assay: Antiinflammatory activity in albino Charles-Foster rat assessed as inhibition of carrageenan-induced paw oedema at 100 mg/kg, po measured before 1 hr and after 3 hrs of carrageenan challenge relative to control; assay type: functional
Mus musculus [14] = assay: Analgesic activity in mouse assessed as protection against phenylquinone-induced writhing at 25 mg/kg, po administered 1 hr before phenylquinone challenge measured for 5 mins relative to control; assay type: functional
[15] = target: Prostaglandin G/H synthase 1 (Homo sapiens) (UniProt P23219); assay: Inhibition of COX1; parameters: concentration or dose not given beside the values; conditions: concentration not given here
[16] = target: T1, Prostaglandin G/H synthase 2 (Homo sapiens) (UniProt P35354); assay: Inhibition of COX2; parameters: concentration or dose not given beside the values; conditions: concentration not given here
T1 sequence (whole entry): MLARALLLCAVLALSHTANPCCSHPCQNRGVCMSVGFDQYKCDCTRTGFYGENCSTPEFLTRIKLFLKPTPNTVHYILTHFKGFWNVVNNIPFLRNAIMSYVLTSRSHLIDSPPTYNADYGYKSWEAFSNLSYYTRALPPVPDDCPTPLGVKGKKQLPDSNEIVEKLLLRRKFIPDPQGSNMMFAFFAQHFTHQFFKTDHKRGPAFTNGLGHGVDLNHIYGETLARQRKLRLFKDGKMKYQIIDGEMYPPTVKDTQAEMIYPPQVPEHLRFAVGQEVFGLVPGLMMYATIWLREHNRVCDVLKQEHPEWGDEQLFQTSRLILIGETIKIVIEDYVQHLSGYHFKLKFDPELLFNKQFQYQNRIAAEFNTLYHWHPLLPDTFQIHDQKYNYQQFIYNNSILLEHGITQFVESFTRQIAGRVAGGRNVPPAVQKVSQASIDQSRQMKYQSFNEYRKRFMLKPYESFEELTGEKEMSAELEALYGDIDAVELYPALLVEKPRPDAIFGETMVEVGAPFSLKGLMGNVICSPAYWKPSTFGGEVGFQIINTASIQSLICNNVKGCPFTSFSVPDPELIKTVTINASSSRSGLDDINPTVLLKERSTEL

Sequence of Prostaglandin G/H synthase 1 (Homo sapiens) (P23219 whole entry): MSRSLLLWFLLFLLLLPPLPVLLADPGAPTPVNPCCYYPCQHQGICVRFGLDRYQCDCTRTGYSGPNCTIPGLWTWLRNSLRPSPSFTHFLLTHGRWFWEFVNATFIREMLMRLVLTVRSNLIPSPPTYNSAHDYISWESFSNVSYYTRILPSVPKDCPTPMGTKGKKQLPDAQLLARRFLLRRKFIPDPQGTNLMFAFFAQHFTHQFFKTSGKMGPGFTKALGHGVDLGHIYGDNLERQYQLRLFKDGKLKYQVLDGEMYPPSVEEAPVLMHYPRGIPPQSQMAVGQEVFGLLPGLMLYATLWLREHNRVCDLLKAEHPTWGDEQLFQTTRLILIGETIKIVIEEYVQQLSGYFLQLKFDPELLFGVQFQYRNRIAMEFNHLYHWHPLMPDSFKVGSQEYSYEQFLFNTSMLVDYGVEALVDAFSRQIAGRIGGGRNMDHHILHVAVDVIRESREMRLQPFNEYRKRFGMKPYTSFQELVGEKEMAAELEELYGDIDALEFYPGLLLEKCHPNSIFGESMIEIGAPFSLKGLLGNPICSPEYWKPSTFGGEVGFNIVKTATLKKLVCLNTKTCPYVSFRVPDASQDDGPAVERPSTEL

Structure (SMILES)	inhibition in vivo at 50 mg/kg (Rattus norvegicus [1]) [%]	Activity (Mus musculus [9]) [%]	LD50 at 24 h [10] [mg/kg]	inhibition [15] [%]	inhibition [16] [%]	further results
COc1ccc2c(c1)c(CC(=O)O)c(C)n2C(=O)c1ccc(Cl)cc1 [INDOMETHACIN]	52.2	–	–	–	–	inhibition in vivo at 10 mg/kg (Rattus norvegicus [2]): 93.2%; Activity (Mus musculus [3]): 41.3%; Activity (Mus musculus [4]): 64.33%; inhibition in vivo at 7.5 mg/kg (Rattus norvegicus [5]): 63.1%; Activity (Mus musculus [6]): 59.25%; inhibition in vivo at 5 mg/kg (Rattus norvegicus [7]): 52.2%
CCCCC1C(=O)N(c2ccccc2)N(c2ccccc2)C1=O [PHENYLBUTAZONE]	36.8	32.5	> 800	–	–	inhibition in vivo at 25 mg/kg (Rattus norvegicus [8]): 26.8%; TD50 at 8 h [11]: 54.6 mg/kg; Activity (Mus musculus [12]): 32.5%; inhibition in vivo at 100 mg/kg (Rattus norvegicus [13]): 64.7%; Activity (Mus musculus [14]): 14.26%
O=C1C(Cl)C(c2ccccc2)N1c1nnc(CNc2nnc3c4ccccc4nc-3s2)s1 (stereo not given)	30.6	21	> 800	37	74.6	–
O=C1C(Cl)C(c2ccccc2Cl)N1c1nnc(CNc2nnc3c4ccccc4nc-3s2)s1 (stereo not given)	28.8	38	> 800	69.1	93.3	inhibition in vivo at 25 mg/kg (Rattus norvegicus [8]): 28.8%; TD50 at 8 h [11]: 133 mg/kg; Activity (Mus musculus [12]): 58%; inhibition in vivo at 100 mg/kg (Rattus norvegicus [13]): 66.8%; Activity (Mus musculus [14]): 19%
CN(C)c1ccc(C2C(Cl)C(=O)N2c2nnc(CNc3nnc4c5ccccc5nc-4s3)s2)cc1 (stereo not given)	33.6	22.67	> 800	37.2	65.8	–
O=C1CSC(c2ccc(Cl)cc2)N1c1nnc(CNc2nnc3c4ccccc4nc-3s2)s1 (stereo not given)	18.2	8.78	> 800	36.5	44.1	–
Clc1ccccc1/C=N/c1nnc(CNc2nnc3c4ccccc4nc-3s2)s1	26	18.66	> 800	28.7	34.4	–
CN(C)c1ccc(/C=N/c2nnc(CNc3nnc4c5ccccc5nc-4s3)s2)cc1	21.4	14.28	> 800	24.2	26.4	–
COc1ccc(/C=N/c2nnc(CNc3nnc4c5ccccc5nc-4s3)s2)cc1	22.4	15.67	> 800	26.2	29.4	–
Cc1ccc(/C=N/c2nnc(CNc3nnc4c5ccccc5nc-4s3)s2)cc1	20.7	12.67	> 800	23.1	25.4	–
CN(C)c1ccc(C2SCC(=O)N2c2nnc(CNc3nnc4c5ccccc5nc-4s3)s2)cc1 (stereo not given)	28.7	18	> 800	32.2	38.1	–
O=C1CSC(c2ccccc2Cl)N1c1nnc(CNc2nnc3c4ccccc4nc-3s2)s1 (stereo not given)	38.5	24.67	> 800	43.1	45.4	inhibition in vivo at 25 mg/kg (Rattus norvegicus [8]): 22.4%; TD50 at 8 h [11]: 167 mg/kg; Activity (Mus musculus [12]): 36.36%; inhibition in vivo at 100 mg/kg (Rattus norvegicus [13]): 44.5%; Activity (Mus musculus [14]): 12.32%
C(=N\c1nnc(CNc2nnc3c4ccccc4nc-3s2)s1)/c1ccccc1	14.8	12.16	> 800	22.4	24.2	–
O=C1C(Cl)C(c2ccc(Cl)cc2)N1c1nnc(CNc2nnc3c4ccccc4nc-3s2)s1 (stereo not given)	34.7	25.01	> 800	40.9	72.1	–
Oc1ccc(/C=N/c2nnc(CNc3nnc4c5ccccc5nc-4s3)s2)cc1	24.3	16.87	> 800	25.1	31.5	–
COc1ccc(C2C(Cl)C(=O)N2c2nnc(CNc3nnc4c5ccccc5nc-4s3)s2)cc1 (stereo not given)	31.6	21.27	> 800	39.5	66.3	–
O=C1CSC(c2ccc(O)cc2)N1c1nnc(CNc2nnc3c4ccccc4nc-3s2)s1 (stereo not given)	25.3	9.95	> 800	34.4	44	–
Clc1ccc(/C=N/c2nnc(CNc3nnc4c5ccccc5nc-4s3)s2)cc1	26	16.5	> 800	27.4	33.7	–
COc1ccc(C2SCC(=O)N2c2nnc(CNc3nnc4c5ccccc5nc-4s3)s2)cc1 (stereo not given)	28.1	10.76	> 800	34.3	40.1	–
Cc1ccc(C2SCC(=O)N2c2nnc(CNc3nnc4c5ccccc5nc-4s3)s2)cc1 (stereo not given)	37	22.08	> 800	33.4	36.3	–
O=C1CSC(c2ccccc2)N1c1nnc(CNc2nnc3c4ccccc4nc-3s2)s1 (stereo not given)	19.8	9.7	> 800	31.9	36.7	–
COc1ccccc1C1SCC(=O)N1c1nnc(CNc2nnc3c4ccccc4nc-3s2)s1 (stereo not given)	31.3	22.56	> 800	33.3	38.5	–
COc1ccccc1C1C(Cl)C(=O)N1c1nnc(CNc2nnc3c4ccccc4nc-3s2)s1 (stereo not given)	36.2	35	> 800	38.7	64.3	–
Cc1ccc(C2C(Cl)C(=O)N2c2nnc(CNc3nnc4c5ccccc5nc-4s3)s2)cc1 (stereo not given)	32.2	18.76	> 800	38.4	63.6	–
O=C1C(Cl)C(c2ccc(O)cc2)N1c1nnc(CNc2nnc3c4ccccc4nc-3s2)s1 (stereo not given)	32.7	19.95	> 800	39.3	71.1	–
COc1ccccc1/C=N/c1nnc(CNc2nnc3c4ccccc4nc-3s2)s1	23.2	22.23	> 800	24.1	26.7	–
